Experimental data published in ChEMBL document CHEMBL5724696, “Autophagy assay results for EUbOPEN Chemogenomics Library” (2024).
“And” between values parts separate entries of the source, which are not always exact repeats. Identical values can stand only once.

Experiments:
Type in all cases: functional, Homo sapiens
[1] = test system: U2OS; assay: (§1) Here: values are normalized to the negative (DMSO; defined as 0% autophagy induction) and positive (250nM Torin1; mTOR inhibitor; defined as maximal inducer of autophagy = 100%) control compounds and represented as % of autophagy induction. […] The impact of autophagy induction on cells is complex and depends on the affected target. As such, the magnitude of a phenotype may not be equally mirrored in the %-value of autophagy induction and vice versa. The dynamics of the induction may indicate the mode of activation: e.g. activation via phosphorylation or a signaling cascade may occur fast, while activation via transcription factors may take considerably longer. […] Of note, treatment concentrations may be sub-optimal for specific compounds, leading to false negative annotations.; details: Culturing Media DMEM, 1 % Penicillin/Streptomycin, 10% Fetal bovin serum Add-On: No, Screening Media Control DMEM, Screening Media Samples DMEM
[2] = test system: U2OS; assay: as §1; details: Culturing Media DMEM, 1 % Penicillin/Streptomycin, 10% Fetal bovin serum Add-On: No, Screening Media Control DMEM, Screening Media Samples DMEM; remark: listed apart in the source
[3] = test system: TERT-RPE1; assay: as §1; details: Culturing Media DMEM/F12 (1:1), 1 % Penicillin/Streptomycin, 10% Fetal bovin serum Add-On: No, Screening Media Control DMEM/F12 (1:1), Screening Media Samples DMEM/F12 (1:1)
[4] = Compound Concentration 0.5 uM, Timepoint 12 hours
[5] = Compound Concentration 0.5 uM, Timepoint 24 hours
[6] = Compound Concentration 0.5 uM, Timepoint 36 hours
[7] = Compound Concentration 0.5 uM, Timepoint 60 hours
[8] = Compound Concentration 2 uM, Timepoint 12 hours
[9] = Compound Concentration 2 uM, Timepoint 24 hours
[10] = Compound Concentration 2 uM, Timepoint 36 hours
[11] = Compound Concentration 2 uM, Timepoint 60 hours
[12] = Compound Concentration 10 uM, Timepoint 12 hours
[13] = Compound Concentration 10 uM, Timepoint 24 hours
[14] = Compound Concentration 10 uM, Timepoint 36 hours
[15] = Compound Concentration 10 uM, Timepoint 60 hours

Work on `COc1ccc(CNC(=O)c2cc(-c3cncc(Cl)c3)cnc2-c2ccccn2)nc1OC` [MK-1064] yielded an autophagy induction [1, 4] of 12.3622%, an autophagy induction [1, 5] of 4.385% and an autophagy induction [1, 6] of 3.479%. For the same compound, the autophagy induction [1, 7] was -7.04%, the autophagy induction [1, 8] was 9.573% and the autophagy induction [1, 9] was 2.106%. It also gave an autophagy induction [1, 10] of 1.004%, an autophagy induction [1, 11] of 0.7274% and an autophagy induction [1, 12] of 0.3207%. The autophagy induction [1, 13] was -2.025%, the autophagy induction [1, 14] was -1.481% and the autophagy induction [1, 15] was 2.712%. The autophagy induction [2, 4] was 6.6807%, the autophagy induction [2, 5] was 0.4544% and the autophagy induction [2, 6] was -59.909%. The autophagy induction [2, 7] was -3.175%, the autophagy induction [2, 8] was 5.723% and the autophagy induction [2, 9] was -2.067%. The autophagy induction [2, 10] was 2463.06%, the autophagy induction [2, 11] was -2.86% and the autophagy induction [2, 12] was 2.927%. For the same compound, the autophagy induction [2, 13] was -3.704%, the autophagy induction [2, 14] was 1020.2% and the autophagy induction [2, 15] was -2.212%. For the same compound, the autophagy induction ([3]; Compound Concentration 0.5 uM, Timepoint 12 hours, 12 h, 0.5 µM) was -1.649% and -1.281%, the autophagy induction ([3]; Compound Concentration 0.5 uM, Timepoint 24 hours, 24 h, 0.5 µM) was -0.5797% and -3.213% and the autophagy induction ([3]; Compound Concentration 0.5 uM, Timepoint 36 hours, 36 h, 0.5 µM) was -3.034% and -3.261%. For the same compound, the autophagy induction ([3]; Compound Concentration 0.5 uM, Timepoint 60 hours, 60 h, 0.5 µM) was -3.035% and -4.321%, the autophagy induction ([3]; Compound Concentration 2 uM, Timepoint 12 hours, 12 h, 2 µM) was 3.536% and 7.073% and the autophagy induction ([3]; Compound Concentration 2 uM, Timepoint 24 hours, 24 h, 2 µM) was -0.496% and 6.728%. The autophagy induction ([3]; Compound Concentration 2 uM, Timepoint 36 hours, 36 h, 2 µM) was -2.12% and 5.645%, the autophagy induction ([3]; Compound Concentration 2 uM, Timepoint 60 hours, 60 h, 2 µM) was -0.3513% and 7.579% and the autophagy induction ([3]; Compound Concentration 10 uM, Timepoint 12 hours, 12 h, 10 µM) was 0.9286% and 0.4822%. For the same compound, the autophagy induction ([3]; Compound Concentration 10 uM, Timepoint 24 hours, 24 h, 10 µM) was 1.419% and 1.256%, the autophagy induction ([3]; Compound Concentration 10 uM, Timepoint 36 hours, 36 h, 10 µM) was 0.4472% and 1.634% and the autophagy induction ([3]; Compound Concentration 10 uM, Timepoint 60 hours, 60 h, 10 µM) was 0.346% and 3.096%.
